{"source": "paper PMC6102074", "about": "(European journal of medicinal chemistry, 2018)", "key": {"[1]": {"assay": "kinetic solubility analysis in PBS solution", "assay_type": "physicochemical"}, "[2]": {"assay": "Pion's μSOL assay for kinetic solubility", "assay_type": "physicochemical"}, "VEGF": {"tested_on": "VEGF", "conditions": "human monocyte leukemia cells (THP1); previously reported, ref [9], [17]; cited from earlier work"}, "rat microsome stability": {"assay": "rat microsome stability", "conditions": "microsomes"}, "[3]": {"conditions": "after 60 minutes"}}}
{"compound": "CCOc1ccccc1C(=O)Nc1ccccc1C(=O)Nc1cccc(S(=O)(=O)C(F)(F)F)c1", "note": "[Compound 63, 2-Ethoxy-N-(2-((3-((trifluoromethyl)sulfonyl)phenyl)carbamoyl)phenyl)benzamide]", "values": [{"measurement": "solubility", "setting": "[1]", "value": "< 1.1", "unit": "µM"}]}
{"compound": "CCOc1ccccc1C(=O)Nc1cnccc1C(=O)Nc1cccc(S(=O)(=O)C(F)(F)F)c1", "note": "[Compound 50, 3-(2-Ethoxybenzamido)-N-(3-((trifluoromethyl)sulfonyl)phenyl)isonicotinamide]", "values": [{"measurement": "solubility", "setting": "[2]", "value": "< 1", "unit": "µM"}]}
{"compound": "O=C(Nc1ccccc1C(=O)Nc1ccccc1C(=O)NCc1ccco1)c1ccco1", "note": "[Compound 1]", "values": [{"measurement": "solubility kinetic", "setting": "physchem", "value": 1.6, "unit": "µg/mL"}]}
{"compound": "CCOc1ccccc1C(=O)Nc1ncccc1C(=O)Nc1cccc(S(=O)(=O)C(F)(F)F)c1", "note": "[Compound 49, 2-(2-Ethoxybenzamido)-N-(3-((trifluoromethyl)sulfonyl)phenyl)nicotinamide]", "values": [{"measurement": "solubility", "setting": "[2]", "value": "< 1", "unit": "µM"}]}
{"compound": "CC(C)Oc1ccccc1C(=O)Nc1ccccc1C(=O)Nc1cccc(S(=O)(=O)C(F)(F)F)c1", "note": "[Compound 65, 2-Isopropoxy-N-(2-(3-(trifluoromethylsulfonyl)phenylcarbamoyl)phenyl)benzamide]", "values": [{"measurement": "activation of VEGF transcription", "setting": "VEGF", "value": "activate the transcription"}, {"measurement": "half-life", "setting": "rat microsome stability", "value": 28.2, "unit": "min"}]}
{"compound": "3-(Cyclohexanecarboxamido)-N-(3-(trifluoromethyl)phenyl)-benzamide [Compound 3]", "values": [{"measurement": "parent remaining in mouse liver microsomes", "setting": "[3]", "value": 70, "unit": "%"}]}
